Columns and labels:
[1] = target: Fc receptor signaling (degranulation); details: IgE- and IgG-mediated Fc receptor activation; cited from earlier work
[2] = test system: Dendritic cells + T cells + CD3/CD28 beads (IL-6 production); assay: CRS assay: IL6 ELISA of supernatant from dendritic cells + T cells + CD3/CD28 beads; format: cell-based; details: human PBMC-derived dendritic cells, 1 h compound pre-incubation, T cells with CD3/CD28 beads overnight; IL-6 in supernatant
[3] = test system: Dendritic cells + T cells + CD3/CD28 beads (IL-2 production); assay: CRS assay: IL2 ELISA of supernatant from dendritic cells + T cells + CD3/CD28 beads; format: cell-based; details: human PBMC-derived dendritic cells, 1 h compound pre-incubation, T cells with CD3/CD28 beads overnight; IL-2 in supernatant
From the text: • 1. Human PBMC cells (PPA Research Group, Cat No. 15-00021) • 2. RPMI media 10% FBS • 3. GMCSF (Peprotech, Cat No. 300-03) and IL4 (Peprotech Cat No. 200-04) • 4. White clear bottom 96 well plates (Fisher, Cat No. 07-200-587, Corning #3903) • 5. Human IL-2 DuoSet ELISA (R&D Systems, Cat No. DY202) • 6. Human IL-6 DuoSet ELISA (R&D Systems, Cat No. DY206) • 7. Cell Titer Glo reagent (Promega, Cat No. G7573) • 8. Dynabeads Human T-Activator CD3/CD28 (Fisher, Cat No. 111.61D) • 9. Anti-human CD3 (BD Biosciences, Cat No. 555336) • 10. CD28, Clone CD28.2 (Beckman Coulter Inc. Cat No. IM1376) • 11. Recombinant Human IL-2 Protein (R&D Systems, Cat No. 202-IL-500)
Transfer human PBMC cells (400 million) obtained from the vendor into three T-175 flasks containing 16 ml RPMI media (10% FBS) and incubate for 2 h at 37° C. After 2 h, remove floating PBL and rinse cell twice with 10 ml of media. Save PBL and media for T cell expansion. Add 16 ml of fresh RPMI media (10% FBS) containing GMCSF (100 ng/ml) and IL4 (20 ng/ml) and keep the flask in 37° C. incubator. After 3 days, add fresh GMCSF (100 ng/ml) and IL4 (20 ng/ml) to the flask and continue the incubation.
• 1. […]
• 1. […] To the remaining 40 μl/well of the cell culture plate add 25 μl of Cell Titer Glo reagent, incubate for 1-2 minutes on a shaker and read the plate for luminescence intensity to determine the compound cytotoxicity. […]

IC50 [2]: 0.119 µM | IC50 [3]: 3.14 µM
SMILES: COc1cc(Nc2ncc(F)c(Nc3ccc4c(n3)NC(=O)C(C)(C)O4)n2)cc(OC)c1OC [Compound R406, 6-((5-fluoro-2-((3,4,5-trimethoxyphenyl)amino)pyrimidin-4-yl)amino)-2,2-dimethyl-2H-pyrido[3,2-b][1,4]oxazin-3(4H)-one]
EC50 [1]: 56 to 64 nM
